One data set deals with MM1.S cells. The data set can be described thus: Cell viability assay (MTS assay). In kind it is cell-based. The procedure:
Cell Viability Assay 1. Cell Line
The multiple myeloma cell line MM1.S was obtained from the ATCC.
Eight thousand MM1.S cells per well were seeded in tissue culture-treated 96-well plate (Nunc) and incubated overnight.
Each well had the same DMSO concentration of 0.05%.
The effects of compounds on cell viability were assessed using CellTiter 96®A Queous One solution Reagent (Promega; G3580).
After being treated with various compounds for 72 hrs, cells in the 96-well plate were centrifuged 1000 rpm for 3 minutes, and 180 ul supernatant were removed from each well. Cells were incubated with 20 ul CellTiter 96®A Queous One solution Reagent and put into incubator with 5% CO2. at 37° C. for an additional 4 hrs. The absorbance was measured at 490 nm with Automatic Microplate reader (Infinite M1000 pro, Tecan). […] Four sets of experiments for each drug combinations were carried out. Cell viability (Percentage of Cell Survival) was calculated by the following formula: cell viability (%)=(average absorbance of treated group-average absorbance of blank)/(average absorbance of untreated group−average absorbance of blank)×100%. IC50 values were calculated using Prism software.
(In general: Tetrazolium dyes change colour on reduction, which living cells bring about.)

Data set [1] in a line: Stability study (three storage/solution conditions, by RP-HPLC). Type of data set: physicochemical. Also on record: key to Stability, Room Temp Dry / Stability, 30° C./65% Humidity / Stability, 37° C. H2O/pH 7.4: “+” meaning stable; “−” meaning quickly degradable. The following applies: for Stability, Room Temp Dry: room temperature (20° C.) under inert dry gas, determined by RP-HPLC; for Stability, 30° C./65% Humidity: sealed with double bags in stability chamber. The procedure:
Compounds were tested for their stability, under three different conditions (see Table 2), by the following procedures: • 1. Room Temperature and Dry: compounds were left at the room temperature (20° C.) under inert dry gas; • 2. 30° C. and 65% Humidity: compounds sealed with double bags were put into a stability chamber. Temperature was set at 30° C. while the humidity was controlled at 65%. • 3. 37° C. pH=7.4 solution: compounds were dissolved in PBS solution and then the entire solution was submerged under a 37° C. water bath.

The mark [2] stands for this setting: Homo sapiens, MM1.S, 72 h, MM1.S cells, 72 hrs treatment, MTS assay, n=4, read-out: IC50.
Where [3] appears, read: MM1.S cells, 72 hrs treatment, MTS assay.
Setting [4] is: MM1.S cells, 72 hrs treatment, MTS assay, n=4, read-out: IC50.
The mark [5] stands for this setting: dissolved in PBS solution, 37° C. water bath, RP-HPLC.

SMILES strings stand for the structures. Where two headings read alike, the source gives them in different places.

As a reminder, the IC50 is the concentration that gives 50% inhibition.

For `CC(C)C[C@H](NC(=O)[C@H](Cc1ccccc1)NC(=O)c1cnccn1)[B-]12OC(=O)C[N+]1(C)CC(=O)O2` (stereo partly drawn) [HL01-11], the results for the half-inhibitory concentration (IC50) in the data set on MM1.S cells (setting [2]) and with MM1.S cells (setting [4]) were about 2 nM and 1.62 nM, respectively. For the same compound, the “Cytotoxic effects on MM1.S cells (in words)” value (from here on “Cytotoxic effects”) in the data set on MM1.S cells (setting [3]) is “strong cytotoxic effects”. Also, in data set [1] (setting [5]), the “Stability, 37° C. H2O/pH 7.4” value was “+”. Besides, the “Stability, Room Temp Dry” value in data set [1] is recorded as “+”. Further, the “Stability, 30° C./65% Humidity” value in data set [1] (RP-HPLC) is “+”.
As for `CC(C)C[C@H](NC(=O)CNC(=O)c1cc(Cl)ccc1Cl)[B-]12OC(=O)C[N+]1(C)CC(=O)O2` (stereo partly drawn) [HL01-15], the IC50 in the data set on MM1.S cells (Homo sapiens, MM1.S, 72 h) was found to be 6.85 nM. Moreover, the “Cytotoxic effects” value in the data set on MM1.S cells (setting [3]) is “weaker than the other compounds”. Moreover, the “Stability, 37° C. H2O/pH 7.4” value in data set [1] (setting [5]) is recorded as “+”. Moreover, in data set [1], the “Stability, Room Temp Dry” value is on record as “+”. Moreover, the “Stability, 30° C./65% Humidity” value in data set [1] (RP-HPLC) is given as “+”.
In the case of `CC(C)C[C@H](NC(=O)CNC(=O)c1cc(Cl)ccc1Cl)B(O)O` [HL01-17], the IC50 in the data set on MM1.S cells (setting [2]) turned out to be 9.45 nM. The “Stability, 37° C. H2O/pH 7.4 (result in words)” value in data set [1] (setting [5]) was “Decompose Instant”. In data set [1], the “Stability, Room Temp Dry” value is “+”. Also, the “Stability, 30° C./65% Humidity” value in data set [1] (RP-HPLC) is “−”.
With `CC(C)C[C@H](NC(=O)[C@H](Cc1ccccc1)NC(=O)c1cnccn1)B(O)O` [Bortezomib, reference compound], in the data set on MM1.S cells (setting [3]), the “Cytotoxic effects” value is “strong cytotoxic effects”. In addition, in the data set on MM1.S cells (setting [4]), the IC50 is 1.76 nM.
In the case of `CC(C)C[C@H](NC(=O)[C@H](Cc1ccccc1)NC(=O)c1cnccn1)B(O)O` [HL01-0, [(1R)-3-methyl-1-[[(2S)-1-oxo-3-phenyl-2[(pyrazinylcarbonyl)amino]propyl]amino]butyl] boronic acid, reference compound], the “Stability, Room Temp Dry” value in data set [1] is listed as “−”.
